From US11466013B2 (Betta Pharmaceuticals Co., LTD, priority 2018, dated 2022)

Experiments:
ERK1 = ERK1 (Homo sapiens, UniProt P27361); test: Kinase assay (Caliper, FAM-labeled peptide), ERK1; assay type: biochemical
Method: (§1) The compound was diluted to the desired concentration with DMSO, transferred 100 μL to a 96-well plate, and performed a gradient dilution 10 μL of compound from each well was taken and mixed with 90 μL of kinase buffer, and then transferred 5 μL from each well to a 384-well plate. Kinase and FAM-labeled peptide and ATP were added to 1× kinase alkaline buffer to obtain 2.5× enzyme solution and 2.5× peptide solution, 10 μL of 2.5× enzyme solution was added to the 384-well assay plate. After incubating for 10 minutes at room temperature, 10 μL of 2.5× peptide solution was added to the 384-well plate. After reacting for a specific time at […], 25 μL of termination buffer was added to stop reaction. After reading the collected data on Caliper, the data was converted to inhibition percentage. Inhibition percentage=(maximum value−conversion value)/(maximum value−minimum value)*100.
(§2) The “maximum” is the DMSO control, the “minimum” indicates the low control.
(§3) Graphpad Prism software was used to perform curve fitting and obtain IC50 value.

ERK2 = ERK2 (Homo sapiens, UniProt P28482); test: Kinase assay (Caliper, FAM-labeled peptide), ERK2; assay type: biochemical
Chain of ERK2 (P28482 whole entry): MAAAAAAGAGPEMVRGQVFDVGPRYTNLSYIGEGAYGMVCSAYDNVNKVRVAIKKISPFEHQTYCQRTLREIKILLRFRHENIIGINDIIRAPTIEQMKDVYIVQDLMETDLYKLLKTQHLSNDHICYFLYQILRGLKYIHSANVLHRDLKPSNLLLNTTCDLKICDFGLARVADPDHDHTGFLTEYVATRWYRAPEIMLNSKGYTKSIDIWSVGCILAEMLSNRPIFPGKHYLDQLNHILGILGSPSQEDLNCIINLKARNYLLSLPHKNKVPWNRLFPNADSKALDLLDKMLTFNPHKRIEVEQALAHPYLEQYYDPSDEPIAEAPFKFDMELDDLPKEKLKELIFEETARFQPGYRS
Method: as §1, §2, §3

Chain of ERK1 (P27361 whole entry): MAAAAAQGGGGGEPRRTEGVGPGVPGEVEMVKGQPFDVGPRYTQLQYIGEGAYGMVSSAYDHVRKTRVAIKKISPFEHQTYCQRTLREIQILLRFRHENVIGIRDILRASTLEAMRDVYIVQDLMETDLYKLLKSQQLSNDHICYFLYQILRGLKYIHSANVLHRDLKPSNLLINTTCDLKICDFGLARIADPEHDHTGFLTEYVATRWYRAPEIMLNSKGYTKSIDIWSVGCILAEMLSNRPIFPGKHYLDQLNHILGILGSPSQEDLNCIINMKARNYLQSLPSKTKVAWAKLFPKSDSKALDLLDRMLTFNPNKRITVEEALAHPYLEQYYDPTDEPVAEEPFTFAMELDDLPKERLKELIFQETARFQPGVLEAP

IC50 (ERK1)	IC50 (ERK2)	Compound
3 nM	3.4 nM	CC(C)Nc1cc(-c2c[nH]c(C(=O)NCc3ccccc3CO)c2)c(Cl)cn1 [Example 1, 4-(5-chloro-2-(isopropylamino)pyridin-4-yl)-N-(2-(hydroxymethyl)benzyl)-1H-pyrrole-2-methyl amide]
0.9 nM	0.7 nM	CC(C)Nc1cc(-c2cnc(C(=O)NCc3ccccc3CO)s2)c(Cl)cn1 [Example 3, 5-(5-chloro-2-(isopropylamino)pyridin-4-yl)-N-(2-(hydroxymethyl)benzyl) thiazole-2-formamide]
1.8 nM	1.8 nM	CC(C)Nc1cc(-c2cnc(C(=O)NCc3ccc(F)cc3CO)s2)c(Cl)cn1 [Example 4, 5-(5-chloro-2-(isopropylamino)pyridin-4-yl)-N-(4-fluoro-2-(hydroxymethyl)benzyl) thiazole-2-formamide]
1.5 nM	1.2 nM	CC(C)Nc1cc(-c2cnc(C(=O)NCc3cccc(F)c3CO)s2)c(Cl)cn1 [Example 5, 5-(5-chloro-2-(isopropylamino)pyridin-4-yl)-N-(3-fluoro-2-(hydroxymethyl)benzyl) thiazole-2-formamide]
0.7 nM	0.6 nM	CC(C)Nc1cc(-c2cc3n(c2)CCN(Cc2ccccc2CO)C3=O)c(Cl)cn1 [Example 14, 7-(5-chloro-2-(isopropylamino)pyridin-4-yl)-2-(2-(hydroxymethyl)benzyl)-3,4-dihydropyrrolo[1,2-a] pyrazine-1(2H)-one]
0.3 nM	0.6 nM	CC(C)Nc1cc(-c2cc3n(c2)CCN(Cc2cc(F)c(F)cc2CO)C3=O)c(Cl)cn1 [Example 19, 7-(5-chloro-2-(isopropylamino)pyridine-4-yl)-2-(4,5-difluoro-2-(hydroxymethyl)benzyl)-3,4-dihydropyrrolo[1,2-a]pyrazine-1(2H)-one]
1.3 nM	0.84 nM	CC(C)Nc1cc(-c2cc3n(c2)CC2(CN(C)C2)CN(Cc2ccccc2CO)C3=O)c(Cl)cn1 [Example 25]
1.3 nM	1.4 nM	CC(C)Nc1cc(-c2cc3n(c2)CC2(COC(C)(C)OC2)CN(Cc2ccccc2CO)C3=O)c(Cl)cn1 [Example 26, 8-(5-Chloro-2-(isopropylamino)pyridin-4-yl)-2-(2-(hydroxymethyl)benzyl)-2′,2′-dimethyl-2,3-dihydro-1H,5H-spiro[pyrrolo[1,2-a][1,4]diazepine-4,5′-[1,3]dioxane]-1-one]
0.9 nM	1.6 nM	CC(C)Nc1cc(-c2cc3n(c2)CC2(COC(C)(C)OC2)CN(Cc2cc(F)ccc2CO)C3=O)c(Cl)cn1 [Example 28, 8-(5-chloro-2-(isopropylamino)pyridin-4-yl)-2-(5-fluoro-2-(hydroxymethyl)benzyl)-2′,2′-dimethyl-2,3-dihydro-1h,5h-spiro[pyrrolo [1,2-a][1,4]diazepine-4,5′-[1,3]dioxane]-1-one]
0.31 nM	0.2 nM	O=C1c2cc(-c3cc(NC4COC4)ncc3Cl)cn2CCN1Cc1cc(F)ccc1CO [Example 30, 7-(5-Chloro-2-(oxetan-3-ylamino)pyridin-4-yl)-2-(5-fluoro-2-(hydroxymethyl)benzyl)-3,4-dihydropyrrolo[1,2-a]pyrazine-1(2H)-one]
0.3 nM	0.32 nM	O=C1c2cc(-c3cc(NC4CCOC4)ncc3Cl)cn2CCN1Cc1cc(F)ccc1CO (centres unmarked) [Example 31, 7-(5-Chloro-2-((tetrahydrofuran-3-yl)amino)pyridin-4-yl)-2-(5-fluoro-2-(hydroxymethyl)benzyl)-3,4-dihydropyrrolo[1,2-a]pyrazine-1(2H)-one]
0.44 nM	0.27 nM	Cc1cnc(NC2COC2)nc1-c1cc2n(c1)CCN(Cc1cc(F)ccc1CO)C2=O [Example 32, 2-(5-Fluoro-2-(hydroxymethyl)benzyl)-7-(5-methyl-2-(oxetan-3-ylamino)pyrimidine-4-yl)-3,4-dihydropyrrolo[1,2-a]pyrazine-1(2H)-one]
0.2 nM	0.4 nM	COC[C@H]1Cn2cc(-c3cc(NC(C)C)ncc3Cl)cc2C(=O)N1Cc1cc(F)ccc1CO [Example 34, (R)-7-(5-chloro-2-(isopropylamino)pyridin-4-yl)-2-(5-fluoro-2-(hydroxymethyl)benzyl)-3-(methoxymethyl)-3,4-dihydropyrrolo[1,2-a]pyrazine-1(2H)-one]
2.5 nM	1.6 nM	CC(C)Nc1cc(-c2cc3n(c2)CC(CO)CN(Cc2cc(F)ccc2CO)C3=O)c(Cl)cn1 (centres unmarked) [Example 42, 8-(5-chloro-2-(isopropylamino)pyridin-4-yl)-2-(5-fluoro-2-(hydroxymethyl)benzyl)-4-(hydroxymethyl)-2,3,4,5-tetrahydro-1H-pyrrolo[1,2-a][1,4]diazepine-1-one]
0.6 nM	0.5 nM	CC(C)Nc1cc(-c2cc3n(c2)CC2(COCOC2)CN(Cc2cc(F)ccc2CO)C3=O)c(Cl)cn1 [Example 43, 8-(5-Chloro-2-(isopropylamino)pyridin-4-yl)-2-(5-fluoro-2-(hydroxymethyl)benzyl)-2,3-dihydro-1H,5H-spiro[pyrrolo[1,2-a][1,4]diazepine-4,5′-[1,3]dioxane]-1-one]
	0.9 nM	COC[C@H]1Cn2cc(-c3c(Cl)cnc(Nc4ccnn4C)c3F)cc2C(=O)N1Cc1cc(F)ccc1CO [Example 47, (H)-7-(5-chloro-3-fluoro-2-((1-methyl-1H-pyrazol-5-yl)amino)pyridin-4-yl)-2-(5-fluoro-2-(hydroxymethyl)benzyl)-3-(methoxymethyl)-3,4-dihydropyrrolo[1,2-a]pyrazine-1(2H)-ketone]
0.9 nM	0.8 nM	Cc1ccccc1Nc1ncc(C)c(-c2cc3n(c2)CCN(Cc2cc(F)ccc2CO)C3=O)n1 [Example 49]
0.95 nM	0.64 nM	COCC1(CO)CN(Cc2cc(F)ccc2CO)C(=O)c2cc(-c3cc(NC(C)C)ncc3Cl)cn2C1 (centres unmarked) [Example 56, 8-(5-chloro-2-(isopropylamino)pyridin-4-yl)-2-(5-fluoro-2-(hydroxymethyl)benzyl)-4-(hydroxymethyl)-4-(methoxymethyl)-2,3,4,5-4,5-tetrahydro-1h-pyrrolo [1,2-a][1,4]diazepine-1-one]
0.9 nM	0.5 nM	COC(=O)C1Cn2cc(-c3cc(NC(C)C)ncc3Cl)cc2C(=O)N1Cc1cc(F)ccc1CO (centres unmarked) [Example 57, Methyl 7-(5-chloro-2-(isopropylamino)pyridin-4-yl)-2-(5-fluoro-2-(hydroxymethyl)benzyl)-1-oxo-1,2,3,4-tetrahydropyrrolo [1,2-a]pyrazine-3-carboxylic acid ethyl ester]
0.51 nM	0.49 nM	CC(C)Nc1cc(-c2cc3n(c2)C[C@H](CO)N(Cc2cc(F)ccc2CO)C3=O)c(Cl)cn1 [Example 59, (R)-7-(5-chloro-2-(isopropylamino)pyridin-4-yl)-2-(5-fluoro-2-(hydroxymethyl)benzyl)-3-(hydroxymethyl)-3,4-dihydropyrrolo[1,2-a] pyrazine-1(2H)-one]
0.54 nM	0.46 nM	COC[C@H]1Cn2cc(-c3cc(NC4COC4)ncc3Cl)cc2C(=O)N1Cc1cc(F)ccc1CO [Example 60, (R)-7-(5-chloro-2-(oxacyclobutane-3-ylamino)pyridine-4-yl)-2-(5-fluoro-2-(hydroxymethyl)benzyl)-3-(methoxymethyl)-3,4-dihydropyrrolo[1,2-a] pyrazine-1(2H)-one]
0.38 nM	0.41 nM	COC[C@H]1Cn2cc(-c3cc(NC4CCOC4)ncc3Cl)cc2C(=O)N1Cc1cc(F)ccc1CO (stereo partly drawn) [Example 61, (3R)-7-(5-chloro-2-((tetrahydrofuran-3-yl)amino)pyridine-4-yl)-2-(5-fluoro-2-(hydroxymethyl)benzyl)-3-(methoxymethyl)-3,4-dihydropyrrolo[1,2-a] pyrazine-1(2H)-one]
1.5 nM	1.6 nM	COC[C@H]1Cn2cc(-c3cc(NC4CC(F)(F)C4)ncc3Cl)cc2C(=O)N1Cc1cc(F)ccc1CO [Example 63, (R)-7-(5-chloro-2-((3,3-difluorocyclobutyl)amino)pyridine-4-yl)-2-(5-fluoro-2-(hydroxymethyl)benzyl)-3-(methoxymethyl)-3,4-dihydropyrrolo[1,2-a] pyrazine-1(2H)-one]
0.97 nM	1.6 nM	COC[C@H]1Cn2cc(-c3cc(NCC(C)(C)O)ncc3Cl)cc2C(=O)N1Cc1cc(F)ccc1CO [Example 65, (R)-7-(5-chloro-2-((2-hydroxy-2-methylpropyl)amino)pyridine-4-yl)-2-(5-fluoro-2-(hydroxymethyl)benzyl)-3-(methoxymethyl)-3,4-dihydropyrrolo[1,2-a] pyrazine-1(2H)-one]
	0.97 nM	COC[C@H]1Cn2cc(-c3cc(Nc4c(C)cnn4C)ncc3Cl)cc2C(=O)N1Cc1cc(F)ccc1CO [Example 97, (R)-7-(5-chloro-2-((1,4-dimethyl-1h-pyrazole-5-yl)amino)pyridine-4-yl)-2-(5-fluoro-2-(hydroxymethyl)benzyl)-3-(methoxymethyl)-3,4-dihydropyrrolo[1,2-a] pyrazine-1(2H)-one]

Compound	IC50 (ERK1)	IC50 (ERK2)
COC[C@H]1Cn2cc(-c3cc(NC(C)C)ncc3Cl)nc2C(=O)N1Cc1cc(F)ccc1CO [Example 46, (R)-2-(5-chloro-2-(isopropylamino)pyridin-4-yl)-7-(5-fluoro-2-(hydroxymethyl)benzyl)-6-(methoxymethyl)-6,7-dihydroimidazo[1,2-a]pyrazine-8-(5H)-one]	2.8 nM	1.4 nM
